According to US20090054368A1, “Substituted gemini surfactant compounds” (University of Saskatchewan, priority 2007, published 2009):
Several values for one entry are separate records, joined by “and”; a condition that tells them apart may be missing. Equal values may be shown once. Entries after “also recorded” stand apart in the source; their conditions may differ.

What was measured:
[1] = Average membrane charge density calculation for plasmid DNA-gemini surfactant-DOPE nanoparticles; assay type: physicochemical; details: calculated from head group areas
cultured cells = test: Viability of cells following transfection; assay type: cell-based; details: after transfection with plasmid DNA-gemini surfactant-DOPE or Lipofectamine Plus; relative to controls (no treatment or plasmid DNA alone)
Protocol: Ideal transfection reagents are minimally toxic and/or disruptive to cells. Accordingly, the N-substituted surfactants were tested for toxicity in cultured cells. The viability of cells following transfection with either plasmid DNA-gemini surfactant-DOPE or Lipofectamine Plus are shown in FIG. 3. The aza-substituted surfactants 12-5N-12, 12-8N-12, and 12-7N-12 had similar toxicity compared to the Lipofectamine Plus reagent, with cell viability around 80% of the controls (i.e., no treatment or plasmid DNA alone; p>0.05).

[2] = from reference [24]; cited from earlier work
[3] = Small angle X-ray scattering (SAXS) of plasmid DNA-gemini surfactant-DOPE complexes; assay type: physicochemical; details: for d-spacing of main scattering peak / phase / morphology of lipid bilayers from scattering pattern (in words) / d-spacing of adjacent DNA molecules: plasmid DNA-gemini surfactant-DOPE complexes; for d-spacing of adjacent DNA molecules: weak peaks at q=0.172 Å^−1; for scattering peak position q, DNA: scattering from adjacent DNA molecules
Protocol: SAXS measurements were carried out at beamline X21 at the National Synchrotron Light Source at Brookhaven National Laboratory. Beamline X21 is based on a wiggler source, with a helium gas-cooled Si(111) monochromator selecting the photon energy. The X-ray beam is focused by a toroidal mirror into the experimental station. Three pairs of precision slits, positioned at 4 m, 1 m, and 5 cm upstream of the sample, define the beam. The scattering pattern is recorded using a 13 cm Mar CCD detector (Mar USA, Evanston, Ill.) located 1.26 m (calibrated with the scattering pattern of silver behenate) downstream of the sample. The measurements were performed with 12 KeV x-rays and the data covered a q-range from 0.008 Å^−1 to 0.375 Å^−1. All beam paths are under vacuum, except at the sample position, where the sample is in air, and kapton windows terminate the vacuum beam paths. Samples were loaded into 1.5 mm capillaries (Charles Supper #15-BG, Natick Mass.) and data recorded at room temperature. All spectra were processed to remove background contributions by subtracting the scattering profile obtained for a water-filled capillary. Peak fitting was carried out using the open-sources software package “fityk” (available at http://www.unipress.waw.pl/fityk/; last accessed on Jul. 5, 2007) using multiple Gaussian functions.
Solutions for SAXS analysis were prepared by addition of appropriate amounts of stock surfactant, DNA, and DOPE solutions, followed by sonication (to ensure complete mixing) where appropriate. The pGTmCMV.IFN-GFP plasmid DNA was used in the SAXS studies. The final concentrations of DNA and DOPE were 0.075 mM (50 μg/mL) and 1.00 mM (0.75 mg/mL), respectively. The concentration of gemini surfactant was adjusted as needed to obtain the desired 1:10 DNA:surfactant charge ratio. Preliminary x-ray scattering studies indicated these concentrations to be too dilute to give good scattering signals; as a result, the samples were concentrated 5× by evaporation.

[4] = test system: COS-7 African Green monkey kidney fibroblast cells; test: Transfection assay (luciferase production after transfection with plasmid DNA-gemini surfactant complexes); assay type: cell-based; details: PGL complexes, with DOPE added
Protocol: COS-7 African Green monkey kidney fibroblast cells (ATCC CRL1651) were prepared for transfection in antibiotic and 10% fetal bovine serum supplemented minimal Eagle's medium (MEM). The day before transfection, 5×10^4 cells/well were seeded in 24-well plates (Greiner Labortechnik GmbH, Germany). The supplemented MEM was changed to MEM one hour prior to transfection.
The pMASIA.Luc plasmid DNA was used at a concentration of 0.2 μg/well for transfection. The transfection mixtures were prepared as follows: 0.2 μg of plasmid DNA was mixed with aliquots of gemini surfactant solution to obtain a plasmid DNA:gemini surfactant charge ratio of 1:10 and incubated at room temperature for 15 minutes. To this mixture, 25 μL of DOPE liposomes were added. The transfection mixtures were incubated for 30 minutes at room temperature prior to transfection and added to the cells, dropwise. The plates were incubated for 5 hours at 37° C. in a CO2 incubator. Dc-Chol (30-[N—(N′,N′-Dimethylaminoethane)-carbamoyl]cholesterol) was used for comparison and, as a positive control, cells were also transfected with Lipofectamine Plus™ Reagent (Invitrogen Life Technologies, Carlsbad, Calif.), according to the manufacturer's protocol, with 0.2 μg of plasmid DNA per well.
Luciferase production was quantified using the Promega Steady-Glo™ luciferase assay system. Luminescence was monitored using a Turner Biosystems (Sunnyvale, Calif., USA) Reporter microplate luminometer. Statistical analysis was performed using ANOVA and Tukey's multiple comparison test. […] Equal variances were tested using Bartlett's test, and normality by the D'Agostino & Pearson omnibus normality test.

[5] = test system: COS-7 African Green monkey kidney fibroblast cells; test: as above; assay type: cell-based; details: PG complexes, complexed with DNA in the absence of helper lipid (DOPE)
[6] = previous work [11]; cited from earlier work
DNA = test: Binding constant between py-s-12 surfactants and DNA from changes in the UV spectrum of the pyrene moiety; set-up: species or system salmon; details: estimated from changes in the UV spectrum of the pyrene moiety
From the text: Similar to a series of peptide substituted pyrene compounds described in [51], the S1-S0, S2-S0, and S3-S0 transitions have lambdamax values of 376, 343, and 276 nm, respectively. The broadening of the absorbance bands of pyrene, the red shift in the absorbance band, and the observed hyperchromism in the presence of DNA are evidence of complexed pyrene compounds Quantitative estimates of the binding constants between py-s-12 surfactants and DNA were obtained by monitoring changes in the UV spectrum of the pyrene moiety. The binding constant for py-3-12 and DNA was estimated to be 5.9×10^3 L mol^−1 and that of py-6-12 was 1.9×10^4 L mol^−1. The stronger binding of py-6-12 to DNA implied that the distance between the cationic head groups is more suitable to electrostatically bind to DNA.
Pyrene, 6-bromohexanoyl chloride, anhydrous aluminum chloride, triethylsilane, trifluoroacetatic acid, N,N,N′,N′-tetramethylpropanediamine, N,N,N′,N′-tetramethylhexanediamine, and 1-bromododecane were purchased from Aldrich Inc. All solutions were prepared using analytical-grade water obtained from a Millipore Milli-Q filtration system. The sodium salt of double-stranded (ds) salmon sperm DNA (about 2 kbp, as stated by the manufacturer, Sigma) was used as received. […]

[7] = Size (hydrodynamic radius) and zeta potential as a function of pH; assay type: physicochemical; details: PGL complexes
Protocol: Determinations of size (hydrodynamic radius, RH) and zeta potential (ζ) as a function of pH were carried out using a Malvern Instruments (Worcestershire, UK) ZetaSizer NanoZs with MPT-2 auto-titrator attachment. 10 mL of the desired sample was placed in the titration cell of the auto-titrator and samples were titrated (in 0.2-0.5 pH unit increments) with 0.1 M NaOH and 0.1 M HCl over the desired pH range. Size and zeta potential measurement were made in triplicate at each pH point, and the reported values represent the average±standard error. pH titrations of aqueous gemini surfactant solutions were made at a surfactant concentration of 2.00 mM, above the critical micelle concentration in all cases.
Solutions for size, zeta potential, and circular dichrosicm (CD) measurements were prepared, in larger volumes, as described above for the transfection experiments using a pGTmCMV.IFN-GFP plasmid DNA, previously constructed in our lab. Solutions containing only surfactant and plasmid DNA were prepared by addition of an aliquot of stock plasmid DNA to the gemini surfactant solution to a charge ratio of 1:10 (DNA:surfactant).

[8] = plasmid DNA-gemini surfactant-DOPE systems

Row | Structure (SMILES) | membrane charge density σM [1] | d-spacing of main scattering peak [3] | phase / morphology of lipid bilayers from scattering pattern (in words) [3] | scattering peak position q, lamellar (L) phase [3, 8] | scattering peak position q, DNA [3, 8] | cell viability (cultured cells) | Head group area a0 [2] | transfection efficiency (in words) [4] | transfection efficiency (in words) [5] | also measured
1 | CCCCCCCCCCCC[N+](C)(C)CC(O)C(O)C[N+](C)(C)CCCCCCCCCCCC.[Br-].[Br-] (stereo not drawn) [12-4(OH)2-12] | – | – | mixed lamellar, hexagonal, and cubic phases | – | – | – | – | enhanced transfection efficiency compared to 12-3-12; also recorded: higher levels of transfection efficiency compared to the non-substituted gemini surfactant 12-3-12 | – | –
2 | CCCCCCCCCCCC[N+](C)(C)CCOCC[N+](C)(C)CCCCCCCCCCCC.[Br-].[Br-] [12-E01-12] | – | – | mixed lamellar, hexagonal, and cubic phases | – | – | – | – | enhanced transfection efficiency compared to 12-3-12; also recorded: higher levels of transfection efficiency compared to the non-substituted gemini surfactant 12-3-12 | – | –
3 | CCCCCCCCCCCC[N+](C)(C)CCCCCCCC[N+](C)(C)CCCCCCCCCCCC.[Br-].[Br-] [12-8-12] | – | – | – | – | – | – | – | – | – | transfection efficiency within the 12-s-12 series, s=3-8 (in words) [6]: lowest
4 | CCCCCCCCCCCC[N+](C)(C)CCC[N+](C)(C)CCCCCCc1ccc2ccc3cccc4ccc1c2c34.[Br-].[Br-] [py-3-12, N1-dodecyl,N1,N1,N3,N3-tetramethyl-N3-(6-(pyren-6-yl)-hexyl)propane-1,3-diammonium dibromide] | – | – | – | – | – | – | – | – | – | binding constant with DNA (DNA): 5900 L/mol
5 | CCCCCCCCCCCC[N+](C)(C)CCCCCC[N+](C)(C)CCCCCCc1ccc2ccc3cccc4ccc1c2c34.[Br-].[Br-] [py-6-12, N1-dodecyl,N1,N1,N6,N6-tetramethyl-N6-(6-(pyren-6-yl)-hexyl)hexane-1,6-diammonium dibromide] | – | – | – | – | – | – | – | – | – | binding constant with DNA (DNA): 19000 L/mol

Continued, in another order:

Row | membrane charge density σM [1] | d-spacing of main scattering peak [3] | phase / morphology of lipid bilayers from scattering pattern (in words) [3] | scattering peak position q, lamellar (L) phase [3, 8] | scattering peak position q, DNA [3, 8] | Structure (SMILES) | cell viability (cultured cells) | Head group area a0 [2] | transfection efficiency (in words) [4] | transfection efficiency (in words) [5] | also measured
6 | 1.05 ×10^−2 e/Å^2 | 58.6 Å | lamellar (L) phase | 0.107 Å^−1 and 0.207 (L) Å^−1 | 0.172 Å^−1 and 0.173 Å^−1 | CCCCCCCCCCCC[N+](C)(C)CCN(C)CC[N+](C)(C)CCCCCCCCCCCC [12-5N-12] | around 80% | 1.30 ± 0.03 nm^2/molecule | enhanced transfection efficiency compared to the un-substituted surfactant, 12-3-12; also recorded: higher levels of transfection efficiency compared to the non-substituted gemini surfactant 12-3-12 | similarly low transfection efficiency compared to 12-3-12 | d-spacing of adjacent DNA molecules [3]: 36.5 Å; transfection efficiency (in words) ([4]; listed as 125N-12): less efficient in DNA transfection
7 | 0.780 ×10^−2 e/Å^2 | 59.6 Å | lamellar structure | 0.105 Å^−1 and 0.210 (L) Å^−1 | 0.170 Å^−1 and 0.169 (DNA), Å^−1 | CCCCCCCCCCCC[N+](C)(C)CCN(C)CCN(C)CC[N+](C)(C)CCCCCCCCCCCC [12-8N-12] | around 80% | 1.95 ± 0.13 nm^2/molecule | – | similarly low transfection efficiency compared to 12-3-12 | scattering peak position q, no phase assigned [3, 8]: 0.119 Å^−1
8 | 1.43 ×10^−2 e/Å^2 | 61.7 Å | lamellar (L) phase | 0.203 (L) Å^−1 and 0.102 Å^−1 | 0.172 Å^−1 | CCCCCCCCCCCC[N+](C)(C)CC[N+](C)(C)CCCCCCCCCCCC.[Br-].[Br-] [12-2-12, reference compound] | – | 0.89 ± 0.05 nm^2/molecule | – | – | d-spacing of adjacent DNA molecules [3]: 36.5 Å
9 | 0.748 ×10^−2 e/Å^2 | 59.6 Å | – | – | – | CCCCCCCCCCCC[N+](C)(C)CCCN(C)CCC[N+](C)(C)CCCCCCCCCCCC.[Br-].[Br-] [12-7N-12, 1,9-bis(dodecyl)-1,1,5,9,9-pentamethyl-5-aza-1,9,-nonanediammonium dibromide] | around 80% | 2.06 ± 0.20 nm^2/molecule | enhanced transfection efficiency compared to the un-substituted surfactant, 12-3-12; also recorded: higher levels of transfection efficiency compared to the non-substituted gemini surfactant 12-3-12; also recorded: most efficient aza-substituted surfactant; also recorded: highest | similarly low transfection efficiency compared to 12-3-12 | pH dependence of particle size (in words) [7]: remained essentially unchanged; pH dependence of zeta potential (in words) [7]: increased as a function of decreasing pH
